From publication PMC9937012 (Journal of Enzyme Inhibition and Medicinal Chemistry, 2023)

Columns and labels:
human recombinant MAO-B = molecular target: T1, human recombinant MAO-B (Homo sapiens, UniProt P27338); experiment: Inhibition of monoamine oxidase B; format: biochemical; conditions: for inhibition at 10 µM: read-out: MAO-B % Inhibition at 10 µM, 10 µM; for inhibition at 10 µM / MAO-B % Inhibition at 10 µM: mean of three experiments
T1 sequence (P27338 1-520): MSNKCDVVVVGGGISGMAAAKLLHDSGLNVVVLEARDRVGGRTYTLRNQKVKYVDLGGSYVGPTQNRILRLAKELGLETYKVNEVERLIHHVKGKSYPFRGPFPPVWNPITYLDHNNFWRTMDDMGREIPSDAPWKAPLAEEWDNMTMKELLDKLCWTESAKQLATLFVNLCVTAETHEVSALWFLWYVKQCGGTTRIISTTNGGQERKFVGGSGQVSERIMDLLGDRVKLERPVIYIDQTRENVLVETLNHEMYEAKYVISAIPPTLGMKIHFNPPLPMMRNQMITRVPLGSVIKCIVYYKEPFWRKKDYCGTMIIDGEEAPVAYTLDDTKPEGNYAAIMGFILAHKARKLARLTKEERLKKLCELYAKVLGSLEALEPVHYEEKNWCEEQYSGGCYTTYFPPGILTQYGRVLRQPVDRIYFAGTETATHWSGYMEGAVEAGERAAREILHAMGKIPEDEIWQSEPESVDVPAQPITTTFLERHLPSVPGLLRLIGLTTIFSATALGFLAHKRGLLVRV

human recombinant MAO-A = molecular target: T2, human recombinant MAO-A (Homo sapiens, UniProt P21397); experiment: Inhibition of monoamine oxidase A; format: biochemical; conditions: read-out: MAO-A % Inhibition at 10 µM
T2 sequence (P21397 1-527): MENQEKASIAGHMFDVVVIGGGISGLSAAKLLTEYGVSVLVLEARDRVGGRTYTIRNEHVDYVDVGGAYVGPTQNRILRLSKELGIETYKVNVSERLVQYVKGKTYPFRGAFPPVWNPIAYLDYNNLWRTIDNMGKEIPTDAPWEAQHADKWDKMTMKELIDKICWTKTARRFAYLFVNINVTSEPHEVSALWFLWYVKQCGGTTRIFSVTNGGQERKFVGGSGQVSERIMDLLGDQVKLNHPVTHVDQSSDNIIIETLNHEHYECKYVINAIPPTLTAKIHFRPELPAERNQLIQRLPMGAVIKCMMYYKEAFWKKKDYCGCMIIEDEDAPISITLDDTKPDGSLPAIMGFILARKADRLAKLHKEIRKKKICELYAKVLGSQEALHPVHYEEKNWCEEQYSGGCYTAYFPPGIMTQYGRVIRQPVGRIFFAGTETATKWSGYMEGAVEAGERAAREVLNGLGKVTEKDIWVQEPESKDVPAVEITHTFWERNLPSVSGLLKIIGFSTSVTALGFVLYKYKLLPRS

human AChE = human AChE (Homo sapiens, UniProt P22303); experiment: Inhibition of AChE; format: biochemical; conditions: for inhibition at 10 µM: read-out: AChE Inhibition at 10 µM [%]
human AChE, sequence (P22303 32-614): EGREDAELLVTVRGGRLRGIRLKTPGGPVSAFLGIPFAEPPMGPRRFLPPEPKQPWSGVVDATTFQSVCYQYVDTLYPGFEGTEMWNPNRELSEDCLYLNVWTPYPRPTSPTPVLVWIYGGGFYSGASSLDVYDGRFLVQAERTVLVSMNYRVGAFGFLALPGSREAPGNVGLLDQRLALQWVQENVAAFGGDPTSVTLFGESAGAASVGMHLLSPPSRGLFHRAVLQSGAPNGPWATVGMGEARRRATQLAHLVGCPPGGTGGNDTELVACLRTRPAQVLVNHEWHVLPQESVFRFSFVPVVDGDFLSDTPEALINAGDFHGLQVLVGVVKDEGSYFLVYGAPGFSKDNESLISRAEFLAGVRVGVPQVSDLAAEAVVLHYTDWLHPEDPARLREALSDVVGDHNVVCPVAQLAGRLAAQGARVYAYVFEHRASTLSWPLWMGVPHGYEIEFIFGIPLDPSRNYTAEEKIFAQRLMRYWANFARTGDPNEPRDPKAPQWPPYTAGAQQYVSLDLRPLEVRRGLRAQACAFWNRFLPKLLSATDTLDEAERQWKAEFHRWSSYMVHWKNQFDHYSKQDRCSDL

BuChE from human serum = BuChE from human serum (Homo sapiens, UniProt P06276); experiment: Inhibition of BuChE; format: biochemical; conditions: for inhibition at 10 µM: read-out: hBuChE % Inhibition at 10 µM
BuChE from human serum, sequence (P06276 29-602): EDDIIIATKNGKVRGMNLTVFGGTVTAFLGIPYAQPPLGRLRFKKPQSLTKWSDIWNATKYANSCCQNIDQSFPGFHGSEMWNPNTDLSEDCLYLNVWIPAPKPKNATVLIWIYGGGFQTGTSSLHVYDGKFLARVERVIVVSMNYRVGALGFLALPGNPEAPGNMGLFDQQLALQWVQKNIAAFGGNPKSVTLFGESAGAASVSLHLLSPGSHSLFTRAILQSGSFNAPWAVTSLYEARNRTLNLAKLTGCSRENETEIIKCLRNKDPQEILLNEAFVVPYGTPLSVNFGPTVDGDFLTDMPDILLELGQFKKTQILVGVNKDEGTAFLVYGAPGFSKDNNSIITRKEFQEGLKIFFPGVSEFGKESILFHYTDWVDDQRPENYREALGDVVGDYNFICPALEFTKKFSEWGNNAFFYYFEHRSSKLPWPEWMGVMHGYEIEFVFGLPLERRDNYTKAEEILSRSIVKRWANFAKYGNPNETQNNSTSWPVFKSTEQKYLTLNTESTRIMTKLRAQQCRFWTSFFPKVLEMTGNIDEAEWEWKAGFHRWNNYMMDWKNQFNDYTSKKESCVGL

human H1R = human H1R (Homo sapiens, UniProt P35367); experiment: Human H1R radioligand displacement assay; format: binding; conditions: for inhibition at 10 µM: read-out: hH1R Inhibition at 10 µM [%] ±SD (n); for inhibition at 1 µM: read-out: hH1R Inhibition at 1 µM [%] (n)
human H1R, sequence (P35367 whole entry): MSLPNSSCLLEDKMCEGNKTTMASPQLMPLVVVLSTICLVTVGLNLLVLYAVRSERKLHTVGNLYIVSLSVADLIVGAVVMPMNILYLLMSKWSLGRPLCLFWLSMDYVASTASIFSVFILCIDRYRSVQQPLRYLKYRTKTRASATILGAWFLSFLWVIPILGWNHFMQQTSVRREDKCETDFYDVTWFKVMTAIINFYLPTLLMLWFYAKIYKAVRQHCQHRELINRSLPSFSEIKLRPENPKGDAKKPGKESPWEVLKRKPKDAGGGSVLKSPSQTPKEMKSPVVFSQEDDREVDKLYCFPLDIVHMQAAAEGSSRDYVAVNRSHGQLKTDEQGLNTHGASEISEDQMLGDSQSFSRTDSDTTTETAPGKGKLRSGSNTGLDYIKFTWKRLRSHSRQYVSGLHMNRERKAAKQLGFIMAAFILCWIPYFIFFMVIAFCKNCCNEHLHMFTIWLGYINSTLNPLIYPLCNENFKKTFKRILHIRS

human H3R = human H3R (Homo sapiens, UniProt Q9Y5N1); experiment: Human H3R radioligand displacement assay
human H3R, sequence (Q9Y5N1 whole entry): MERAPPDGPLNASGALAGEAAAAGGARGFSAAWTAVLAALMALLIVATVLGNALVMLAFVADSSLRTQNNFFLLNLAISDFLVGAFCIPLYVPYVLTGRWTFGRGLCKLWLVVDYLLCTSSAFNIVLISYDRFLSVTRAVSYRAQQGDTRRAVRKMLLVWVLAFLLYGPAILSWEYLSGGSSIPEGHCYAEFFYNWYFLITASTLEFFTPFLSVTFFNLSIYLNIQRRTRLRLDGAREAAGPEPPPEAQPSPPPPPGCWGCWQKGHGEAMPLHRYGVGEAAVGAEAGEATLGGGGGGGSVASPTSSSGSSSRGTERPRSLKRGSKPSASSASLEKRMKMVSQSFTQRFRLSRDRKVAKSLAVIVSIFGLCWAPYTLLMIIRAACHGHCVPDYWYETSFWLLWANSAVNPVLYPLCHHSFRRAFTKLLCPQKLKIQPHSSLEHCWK

human H4R = human H4R (Homo sapiens, UniProt Q9H3N8); experiment: Human H4R radioligand displacement assay; conditions: read-out: hH4R Inhibition at 10 µM [%] (n)
human H4R, sequence (Q9H3N8 whole entry): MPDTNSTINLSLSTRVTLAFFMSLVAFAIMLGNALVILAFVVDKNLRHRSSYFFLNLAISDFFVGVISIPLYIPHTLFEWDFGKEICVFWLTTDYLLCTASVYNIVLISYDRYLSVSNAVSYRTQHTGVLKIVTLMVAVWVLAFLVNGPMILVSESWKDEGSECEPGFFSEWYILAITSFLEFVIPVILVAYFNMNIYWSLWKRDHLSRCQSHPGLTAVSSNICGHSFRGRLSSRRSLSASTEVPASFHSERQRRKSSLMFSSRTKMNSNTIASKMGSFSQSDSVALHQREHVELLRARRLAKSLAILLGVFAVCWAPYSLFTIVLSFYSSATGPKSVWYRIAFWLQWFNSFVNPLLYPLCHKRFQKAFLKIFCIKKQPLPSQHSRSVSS

Compound | inhibition at 10 µM (human recombinant MAO-B) | inhibition at 10 µM (human recombinant MAO-A) | IC50 (human AChE) | inhibition at 10 µM (human AChE) | IC50 (BuChE from human serum) | inhibition at 10 µM (BuChE from human serum) | inhibition at 10 µM (human H1R) | Ki (human H3R) | inhibition at 10 µM (human H4R) | IC50 (human recombinant MAO-B) | MAO-B % Inhibition at 10 µM (human recombinant MAO-B) | inhibition at 1 µM (human H1R)
O=C(c1nc2ccc(OCCN3CCCC3)cc2s1)N1CCCC1 [Compound 3b, Pyrrolidin-1-yl-(6-(2-(pyrrolidin-1-yl)ethoxy)benzo[d]thiazol-2-yl)methanone] | 47 ± 3% | 58 ± 2% | 440 ± 100 nM | 95.3 ± 0.8% | 5310 ± 10 nM | 70 ± 1% | < 0% | 640 nM | 44.9 ± 18.1% |  |  | 
O=C(c1nc2ccc(OCCCN3CCCCC3)cc2s1)N1CCCCC1 [Compound 3d, Piperidin-1-yl-(6-(3-(piperidin-1-yl)propoxy)benzo[d]thiazol-2-yl)methanone] | 28 ± 5% | 33 ± 3% | > 10000 nM | 33.6 ± 10.8% |  | 31 ± 1% | 65.3 ± 9.2% | 74 nM | 63.1 ± 11.2% |  |  | 
O=C(c1nc2ccc(OCCCN3CCCC3)cc2s1)N1CCCC1 [Compound 3h, Pyrrolidin-1-yl-(6-(3-(pyrrolidin-1-yl)propoxy)benzo[d]thiazol-2-yl)methanone] | 24 ± 4% | 22 ± 4% | 7210 ± 2300 nM | 56.8 ± 7.14% |  | 13 ± 2% | 39.1 ± 13% | 38 nM | 54.3 ± 13% |  |  | 
O=C(c1nc2ccc(OCCCCN3CCCCC3)cc2s1)N1CCCCC1 [Compound 3j, Piperidin-1-yl-(6-(4-(piperidin-1-yl)butoxy)benzo[d]thiazol-2-yl)methanone] | 48 ± 5% | 29 ± 5% | 8560 ± 2830 nM | 54.8 ± 7.01% | 3070 ± 240 nM | 70 ± 2% | 42.8 ± 7.7% | 170 nM | 53.1 ± 11.7% |  |  | 
O=C(c1nc2ccc(OCCCCN3CCCC3)cc2s1)N1CCCC1 [Compound 3n, Pyrrolidin-1-yl(6-(4-(pyrrolidin-1-yl)butoxy)benzo[d]thiazol-2-yl)methanone] | 49 ± 4% | 31 ± 4% | 1300 ± 100 nM | 83 ± 3.27% | 1320 ± 120 nM | 80 ± 1% | 37.5 ± 7.5% | 59 nM | 57.9 ± 13.3% |  |  | 
O=C(c1nc2ccc(OCCCCCN3CCCCC3)cc2s1)N1CCCCC1 [Compound 3o, Piperidin-1-yl(6-((5-(piperidin-1-yl)pentyl)oxy)benzo[d]thiazol-2-yl)methanone] | > 60% | 37 ± 4% | > 10000 nM | 27.8 ± 5.91% | 2380 ± 320 nM | 81 ± 1% | 91.2 ± 8.2% | 68 nM | 38.8 ± 28% | 3040 ± 460 nM | 70 ± 4% | 
O=C(c1nc2ccc(OCCCCCN3CCCC3)cc2s1)N1CCCC1 [Compound 3s, Pyrrolidin-1-yl-(6-((5-(pyrrolidin-1-yl)pentyl)oxy)benzo[d]thiazol-2-yl)methanone] | > 60% | 45 ± 3% |  | 58.6 ± 3.73% | 2350 ± 230 nM | 69 ± 1% | 66.2 ± 7.3% | 36 nM | 63.7 ± 13% | 1600 ± 160 nM | 75 ± 3% | 
O=C(NC1CCCC1)c1nc2ccc(OCCCCCNC3CCCC3)cc2s1 [Compound 3t, N-Cyclopentyl-6-((5-(cyclopentylamino)pentyl)oxy)benzo[d]thiazole-2-carboxamide] | 47 ± 5% | 39 ± 4% | 3550 ± 540 nM | 75.5 ± 4.73% | 1750 ± 60 nM | 84 ± 1% | 47.3 ± 8.91% | > 1000 nM | 41.8 ± 31.7% |  |  | 
O=C(NCCN1CCCC1)c1nc2ccc(OCCCNCCN3CCCC3)cc2s1 [Compound 4a, N-(2-(Pyrrolidin-1-yl)ethyl)-6-(3-((2-(pyrrolidin-1-yl)ethyl)amino)propoxy)benzo[d]thiazole-2-carboxamide] | 51 ± 1% | 29 ± 4% | 1240 ± 70 nM | 86.9 ± 1.51% | 169 ± 19 nM | 97 ± 1% |  | 53 nM |  |  |  | 28.1 ± 39.1%
O=C(c1nc2ccc(OCCCN3CCCCCC3)cc2s1)N1CCCCCC1 [Compound 4b, Azepan-1-yl-(6-(3-(azepan-1-yl)propoxy)benzo[d]thiazol-2-yl)methanone] | 46 ± 5% | 29 ± 2% | 5910 ± 670 nM | 62.8 ± 3.35% |  | 51 ± 2% |  | 12 nM |  |  |  | 41.9 ± 33.8%
CC1CCCN(CCCOc2ccc3nc(C(=O)N4CCCC(C)C4)sc3c2)C1 (centres unmarked) [Compound 4k, (3-Methylpiperidin-1-yl)(6-(3-(3-methylpiperidin-1-yl)propoxy)benzo[d]thiazol-2-yl)methanone] | 48 ± 5% | 32 ± 2% | > 10000 nM | 34.4 ± 2.15% |  | 30 ± 5% |  | 64 nM |  |  |  | 42.9 ± 28.3%
